Converted amounts (≈) assume the structure as drawn. Read-outs that look alike come from different tables or passages of the source.
Experiment: Cyclodextrin-AOL solubility diagrams
Format: physicochemical
Conditions: for solubility: 4 °C; for solubility / solubility at 4 h: aqueous with cosolvent or surfactant or cyclodextrin, thermodynamic from solid
Source text: A cyclodextrin-AOL solubility diagram would reveal the profile of the solubility curve of the AOL depending on the concentration of the cyclodextrin. The principle of this method is to add an excess of AOL to cyclodextrin solutions of increasing concentration, then to measure the amount of solubilized AOL. This method confirms the solubilization and evaluates more precisely the cyclodextrin solubilizing power, to define a stoichiometry of the complexes (molar and mass ratios) over the entire range of concentrations studied and to estimate the solubility limit and the stability of the mixtures.
The solubilization was carried out with HP-β-CD and SBE-β-CD in a range of concentration ranging from 2.5% to 40% (m/m) at 20° C., 25° C. and 30° C. To check the stability of the solution, a storage test at 4° C. for 48 hours was carried out with the solutions previously prepared at 20° C.
Aqueous solutions of cyclodextrin at in weight (m/m) concentrations of 2.5%, 5%, 10%, 20%, 30% and 40% were prepared in pure water. An excess of AOL was suspended in 2 mL each of these solutions. Each sample is shaken at 20° C., 25° C. or 30° C. for 4 hours (vortex at 1400 rpm). Each sample is centrifuged (12,500 g) and filtered through a 0.45 μm membrane.
The solubility of AOL in each test solution was quantified by HPLC as detailed in Example 2.

[1] = SBE-β-CD 20% (w/w), 20° C. followed by 48 hours at 4° C.
[2] = SBE-β-CD 30% (w/w), 20° C. followed by 48 hours at 4° C.
[3] = SBE-β-CD 40% (w/w), 20° C. followed by 48 hours at 4° C.

In the case of `COc1ccc(-c2cc(=S)ss2)cc1` [AOL, 5-(4-methoxyphenyl)-3H-1,2-dithiole-3-thione], the “CD/AOL weight ratio Rm” value (SBE-β-CD 20% (w/w), 20° C.) is reported as 722, the “CD/AOL molar ratio RM” value [1] is reported as 130 and the “CD/AOL weight ratio Rm” value [1] is reported as 1211. For the same compound, the “CD/AOL molar ratio RM” value (SBE-β-CD 20% (w/w), 25° C.) was 63, the “CD/AOL weight ratio Rm” value (SBE-β-CD 20% (w/w), 25° C.) was 587 and the “CD/AOL molar ratio RM” value (SBE-β-CD 20% (w/w), 30° C.) was 50. The “CD/AOL weight ratio Rm” value (SBE-β-CD 20% (w/w), 30° C.) was 469, the “CD/AOL molar ratio RM” value (SBE-β-CD 30% (w/w), 20° C.) was 70 and the “CD/AOL weight ratio Rm” value (SBE-β-CD 30% (w/w), 20° C.) was 650. For the same compound, the “CD/AOL molar ratio RM” value [2] was 112, the “CD/AOL weight ratio Rm” value [2] was 1049 and the “CD/AOL molar ratio RM” value (SBE-β-CD 30% (w/w), 25° C.) was 56. The “CD/AOL weight ratio Rm” value (SBE-β-CD 30% (w/w), 25° C.) was 522, the “CD/AOL molar ratio RM” value (SBE-β-CD 30% (w/w), 30° C.) was 45 and the “CD/AOL weight ratio Rm” value (SBE-β-CD 30% (w/w), 30° C.) was 417. The “CD/AOL molar ratio RM” value (SBE-β-CD 40% (w/w), 20° C.) was 64, the “CD/AOL weight ratio Rm” value (SBE-β-CD 40% (w/w), 20° C.) was 600 and the “CD/AOL molar ratio RM” value [3] was 94. For the same compound, the “CD/AOL weight ratio Rm” value [3] was 876, the “CD/AOL molar ratio RM” value (SBE-β-CD 40% (w/w), 25° C.) was 51 and the “CD/AOL weight ratio Rm” value (SBE-β-CD 40% (w/w), 25° C.) was 474. For the same compound, the “CD/AOL molar ratio RM” value (SBE-β-CD 40% (w/w), 30° C.) was 41, the “CD/AOL weight ratio Rm” value (SBE-β-CD 40% (w/w), 30° C.) was 383 and the solubility (aqueous HP-β-CD solution, HP-β-CD 2.5% (w/w), 20° C. followed by 48 hours at 4° C.) was 11.6 µg/mL (≈ 48.3 µM). It also gave a solubility (aqueous HP-β-CD solution, HP-β-CD 5% (w/w), 20° C. followed by 48 hours at 4° C.) of 25.1 µg/mL (≈ 104 µM), a solubility (aqueous HP-β-CD solution, HP-β-CD 10% (w/w), 20° C. followed by 48 hours at 4° C.) of 52.7 µg/mL (≈ 219 µM) and a solubility (aqueous HP-β-CD solution, HP-β-CD 20% (w/w), 20° C. followed by 48 hours at 4° C.) of 109 µg/mL (≈ 452 µM). It also gave a solubility (aqueous HP-β-CD solution, HP-β-CD 30% (w/w), 20° C. followed by 48 hours at 4° C.) of 187 µg/mL (≈ 777 µM), a solubility (aqueous HP-β-CD solution, HP-β-CD 40% (w/w), 20° C. followed by 48 hours at 4° C.) of 270 µg/mL (≈ 1120 µM) and a solubility at 4 h (aqueous HP-β-CD solution, 20 °C, HP-β-CD 2.5% (w/w), 20° C., read-out: AOL solubility) of 13.4 µg/mL (≈ 55.7 µM). The solubility at 4 h (aqueous HP-β-CD solution, 20 °C, HP-β-CD 5% (w/w), 20° C., read-out: AOL solubility) was 27.3 µg/mL (≈ 114 µM), the solubility at 4 h (aqueous HP-β-CD solution, 30 °C, HP-β-CD 40% (w/w), 30° C., read-out: AOL solubility) was 644 µg/mL (≈ 2680 µM) and the solubility (aqueous SBE-β-CD solution, SBE-β-CD 2.5% (w/w), 20° C. followed by 48 hours at 4° C.) was 16.9 µg/mL (≈ 70.3 µM). It also gave a solubility (aqueous SBE-β-CD solution, SBE-β-CD 5% (w/w), 20° C. followed by 48 hours at 4° C.) of 34.6 µg/mL (≈ 144 µM), a solubility (aqueous SBE-β-CD solution, SBE-β-CD 10% (w/w), 20° C. followed by 48 hours at 4° C.) of 70.7 µg/mL (≈ 294 µM) and a solubility (aqueous SBE-β-CD solution, SBE-β-CD 20% (w/w), 20° C. followed by 48 hours at 4° C.) of 165 µg/mL (≈ 687 µM). For the same compound, the solubility (aqueous SBE-β-CD solution, SBE-β-CD 30% (w/w), 20° C. followed by 48 hours at 4° C.) was 286 µg/mL (≈ 1190 µM), the solubility (aqueous SBE-β-CD solution, SBE-β-CD 40% (w/w), 20° C. followed by 48 hours at 4° C.) was 457 µg/mL (≈ 1900 µM) and the solubility at 4 h (aqueous SBE-β-CD solution, 20 °C, SBE-β-CD 2.5% (w/w), 20° C., read-out: AOL solubility) was 29.3 µg/mL (≈ 122 µM). It also gave a solubility at 4 h (aqueous SBE-β-CD solution, 20 °C, SBE-β-CD 5% (w/w), 20° C., read-out: AOL solubility) of 59.7 µg/mL (≈ 248 µM), a solubility at 4 h (aqueous SBE-β-CD solution, 20 °C, SBE-β-CD 10% (w/w), 20° C., read-out: AOL solubility) of 125 µg/mL (≈ 521 µM) and a solubility at 4 h (aqueous SBE-β-CD solution, 20 °C, SBE-β-CD 20% (w/w), 20° C., read-out: AOL solubility) of 277 µg/mL (≈ 1150 µM). The solubility at 4 h (aqueous SBE-β-CD solution, 20 °C, SBE-β-CD 30% (w/w), 20° C., read-out: AOL solubility) was 462 µg/mL (≈ 1920 µM), the solubility at 4 h (aqueous SBE-β-CD solution, 20 °C, SBE-β-CD 40% (w/w), 20° C., read-out: AOL solubility) was 667 µg/mL (≈ 2770 µM) and the solubility at 4 h (aqueous SBE-β-CD solution, 25 °C, SBE-β-CD 2.5% (w/w), 25° C., read-out: AOL solubility) was 35.8 µg/mL (≈ 149 µM). For the same compound, the solubility at 4 h (aqueous SBE-β-CD solution, 25 °C, SBE-β-CD 5% (w/w), 25° C., read-out: AOL solubility) was 74.9 µg/mL (≈ 312 µM), the solubility at 4 h (aqueous SBE-β-CD solution, 25 °C, SBE-β-CD 10% (w/w), 25° C., read-out: AOL solubility) was 156 µg/mL (≈ 651 µM) and the solubility at 4 h (aqueous SBE-β-CD solution, 25 °C, SBE-β-CD 20% (w/w), 25° C., read-out: AOL solubility) was 340 µg/mL (≈ 1420 µM). The solubility at 4 h (aqueous SBE-β-CD solution, 25 °C, SBE-β-CD 30% (w/w), 25° C., read-out: AOL solubility) was 575 µg/mL (≈ 2390 µM), the solubility at 4 h (aqueous SBE-β-CD solution, 25 °C, SBE-β-CD 40% (w/w), 25° C., read-out: AOL solubility) was 844 µg/mL (≈ 3510 µM) and the solubility at 4 h (aqueous SBE-β-CD solution, 30 °C, SBE-β-CD 2.5% (w/w), 30° C., read-out: AOL solubility) was 44.7 µg/mL (≈ 186 µM). The solubility at 4 h (aqueous SBE-β-CD solution, 30 °C, SBE-β-CD 5% (w/w), 30° C., read-out: AOL solubility) was 96.2 µg/mL (≈ 400 µM), the solubility at 4 h (aqueous SBE-β-CD solution, 30 °C, SBE-β-CD 10% (w/w), 30° C., read-out: AOL solubility) was 197 µg/mL (≈ 821 µM) and the solubility at 4 h (aqueous SBE-β-CD solution, 30 °C, SBE-β-CD 20% (w/w), 30° C., read-out: AOL solubility) was 427 µg/mL (≈ 1780 µM). The solubility at 4 h (aqueous SBE-β-CD solution, 30 °C, SBE-β-CD 30% (w/w), 30° C., read-out: AOL solubility) was 720 µg/mL (≈ 3000 µM), the solubility at 4 h (aqueous SBE-β-CD solution, 30 °C, SBE-β-CD 40% (w/w), 30° C., read-out: AOL solubility) was 1040 µg/mL (≈ 4340 µM) and the solubility at 4 h (aqueous cyclodextrin solution, 20 °C, HP-β-CD 10% (w/w), 20° C., read-out: AOL solubility) was 61.3 µg/mL (≈ 255 µM). For the same compound, the solubility at 4 h (aqueous cyclodextrin solution, 20 °C, HP-β-CD 20% (w/w), 20° C., read-out: AOL solubility) was 145 µg/mL (≈ 602 µM), the solubility at 4 h (aqueous cyclodextrin solution, 20 °C, HP-β-CD 30% (w/w), 20° C., read-out: AOL solubility) was 243 µg/mL (≈ 1010 µM) and the solubility at 4 h (aqueous cyclodextrin solution, 20 °C, HP-β-CD 40% (w/w), 20° C., read-out: AOL solubility) was 344 µg/mL (≈ 1430 µM). The solubility at 4 h (aqueous cyclodextrin solution, 25 °C, HP-β-CD 2.5% (w/w), 25° C., read-out: AOL solubility) was 19.5 µg/mL (≈ 81.1 µM), the solubility at 4 h (aqueous cyclodextrin solution, 25 °C, HP-β-CD 5% (w/w), 25° C., read-out: AOL solubility) was 40.1 µg/mL (≈ 167 µM) and the solubility at 4 h (aqueous cyclodextrin solution, 25 °C, HP-β-CD 10% (w/w), 25° C., read-out: AOL solubility) was 83.9 µg/mL (≈ 349 µM). For the same compound, the solubility at 4 h (aqueous cyclodextrin solution, 25 °C, HP-β-CD 20% (w/w), 25° C., read-out: AOL solubility) was 184 µg/mL (≈ 766 µM), the solubility at 4 h (aqueous cyclodextrin solution, 25 °C, HP-β-CD 30% (w/w), 25° C., read-out: AOL solubility) was 287 µg/mL (≈ 1200 µM) and the solubility at 4 h (aqueous cyclodextrin solution, 25 °C, HP-β-CD 40% (w/w), 25° C., read-out: AOL solubility) was 418 µg/mL (≈ 1740 µM). It also gave a solubility at 4 h (aqueous cyclodextrin solution, 30 °C, 30° C., 40% (w/w) HP-β-CD, read-out: highest solubility reached) of 650 µg/mL (≈ 2700 µM), a solubility at 4 h (aqueous cyclodextrin solution, 30 °C, 30° C., 40% SBE-β-CD, read-out: solubility) greater than 1000 µg/mL and a solubility at 4 h (aqueous cyclodextrin solution, 30 °C, HP-β-CD 2.5% (w/w), 30° C., read-out: AOL solubility) of 26.1 µg/mL (≈ 109 µM). For the same compound, the solubility at 4 h (aqueous cyclodextrin solution, 30 °C, HP-β-CD 5% (w/w), 30° C., read-out: AOL solubility) was 51.4 µg/mL (≈ 214 µM), the solubility at 4 h (aqueous cyclodextrin solution, 30 °C, HP-β-CD 10% (w/w), 30° C., read-out: AOL solubility) was 114 µg/mL (≈ 476 µM) and the solubility at 4 h (aqueous cyclodextrin solution, 30 °C, HP-β-CD 20% (w/w), 30° C., read-out: AOL solubility) was 255 µg/mL (≈ 1060 µM). The solubility at 4 h (aqueous cyclodextrin solution, 30 °C, HP-β-CD 30% (w/w), 30° C., read-out: AOL solubility) was 458 µg/mL (≈ 1900 µM).

From patent US20210308173A1, “PHARMACEUTICAL COMPOSITION COMPRISING CYCLODEXTRIN COMPLEXES OF ANETHOLE TRITHIONE OR DERIVATIVES THEREOF” (priority 2018, published 2021)
